Measured values: US6599898B2, “Use of certain substituted caprolactam carbonates and ethers in treating tumors” (Novartis AG, priority 2000, dated 2003)

Experiments:
[1] = test system: MDA-MB-435 human breast carcinoma; assay: Anchorage Dependent Growth Monolayer Assay (ADGMA), MTS; format: cell-based; settings: MDA-MB-435, 72 h, 3-day exposure, MTS A490, read-out: IC50 (average±S.D.) MDA-MB-435
Procedure: As indicated above, all of the compounds of formula I, and their corresponding pharmaceutically acceptable acid addition salts, are anti-tumor agents and are, therefore, useful in inhibiting the growth of various lymphomas, sarcomas, carcinomas, myelomas, and leukemia cell lines. […]
The ADGMA compares the number of viable cells following a 3-day exposure to a test compound relative to a number of cells present at the time the test compound was added. […] The absorbance at 490 nm (A490) of the formazan derivative is proportional to the number of viable cells. […]
Cell lines are trypsinized and counted using a Coulter counter to determine plating densities. […] The number of cells plates as determined in preliminary experiments, results in cell densities of 75-90% of confluency by 4 days after plating. Initial cell densities, assayed one day after plating, are roughly 0.15-0.20 absorbance units greater than the media blank. […] A490 of control plates is read 4 h after MTS addition to determine initial cell density values for each cell line. Three days after addition of test compound, 10 μL/well of MTS mixture is added to the test plates and A490 is read 4 h later. A490 values for wells containing cells are corrected for media absorbance, then normalized to initial density readings to determine percent net growth. […]

[2] = test system: MDA-MB-435 tumor xenografts; assay: Human tumor xenograft growing s.c. in athymic nude mice; format: in vivo, athymic nude mouse; settings: 3×/week for 3 weeks, * = p<0.05
Procedure: (§1) Utilizing this model, one can measure the ability of test compounds to inhibit the growth of human tumor xenografts growing subcutaneously (s.c.) in athymic nude mice. The histologic tumor type employed was MDA-MB-435 breast carcinoma for Ex.1 and 7 and A549 non-small cell lung carcinoma for Ex. 1-3.
MDA-MB-435 human breast carcinoma: Treatments were started 15 d post implantation (3×10^6 cells/mouse), when a mean tumor volume of approximately 45 mm^3 was reached. Ex. 1 and 7 were administered iv at three times per week for 3 weeks (days 15, 17, 20, 22, 24, 27, 29, and 31), at 3.3, 10, and 33 μmol/kg. Doxorubicin was administered iv at 2 mg/kg using the same schedule. Each data point represents tumor growth (mean±SEM), or body weight (mean), with an initial group size of n=8, from a representative experiment performed twice. An asterisk (*) indicates p<0.05 using a one-tailed Student's t-test.
Toxicity was monitored by recording average group body weights twice weekly, and by daily observation of general health. Efficacy was monitored by taking measurements of tumor length, width, and depth weekly using digital calipers coupled to automated data collectors. Mean tumor volume (MTV) at initiation of therapy was subtracted from final MTV in order to express the actual tumor growth during treatment (Δ MTV). Anti-tumor activity was expressed as % T/C(Δ MTV of treated group÷Δ MTV of control group×100%). Statistical significance was evaluated using a one-tailed Student's t-test (p<0.05).

[3] = test system: A549 tumor xenografts; assay: as above; format: in vivo, athymic nude mouse; settings: 5×/week for 2 weeks, recorded on day 24, * = p<0.05
Procedure: as §1
A549 non-small cell lung carcinoma: Treatments were started 17 d post-implantation (1×10^7 cells/mouse), when a mean tumor volume of approximately 120 mm^3 was reached. Ex. 1-3 were administered iv on days 17-21 (followed by 2 d rest, then a second cycle of treatment on days 24-28). Total daily doses of 10 or 30 μmol/kg were administered as a single injection. Data in this table were recorded on day 24, 3 d after the last treatment of the first cycle. An asterisk (*) indicates p<0.05 using a one-tailed Student's t-Test.
Toxicity was monitored by recording average group body weights twice weekly, and by daily observation of general health. Efficacy was monitored by taking measurements of tumor length, width, and depth weekly using digital calipers coupled to automated data collectors. […] Anti-tumor activity was expressed as % T/C(Δ MTV of treated group÷Δ MTV of control group×100%). Statistical significance was evaluated using a one-tailed Student's t-test (p<0.05).

CCCCCCCCCCCOCC(=O)O[C@@H]1CC[C@H](NC(=O)[C@H](OC)[C@H](O)[C@@H](O)[C@H](O)/C=C/C(C)(C)C)C(=O)NC1 [Ex. 7, (2R,3R,4S,5R,6E)-3,4,5-trihydroxy-2-methoxy-8,8-dimethyl-N-[(3S,6R)-hexahydro-2-oxo-6-([[undecyloxy]acetyl]oxy)-2H-azepin-3-yl]non-6-enonamide]
IC50 [1]: 61 ± 95 nM | % T/C ([2]; 3.3 μmol/kg iv): 102% | % T/C ([2]; 10 μmol/kg iv): 64% | % T/C ([2]; 33 μmol/kg iv): 30* %

CCCCCOC(=O)O[C@@H]1CC[C@H](NC(=O)[C@H](OC)[C@H](O)[C@@H](O)[C@H](O)/C=C/C(C)(C)C)C(=O)NC1 [Ex. 2, (2R,3R,4S,5R,6E)-3,4,5-trihydroxy-2-methoxy-8,8-dimethyl-N-[(3S,6R)-hexahydro-2-oxo-6-([[pentyloxy]carbonyl]oxy)-2H-azepin-3-yl]non-6-enonamide]
% T/C ([3]; 10 μmol/kg iv daily): 32* % | % T/C ([3]; 30 μmol/kg iv daily): 46* %
